Source: patent US11208399B2, “NLRP3 inflammasome inhibitors” (Novartis AG, priority 2019, dated 2021)
Where a name gives a salt, the structure may show the parent alone.

System: NF-kB-dependent TNF-α secretion
Assay: TNF-α secretion assay in THP-1 cells (counter screen, HTRF)
Format: cell-based
Settings: Homo sapiens, Pam3CSK4-stimulated, 3 hours
Description: Monocytic THP-1 cells were maintained according to providers' instructions in RPMI media as described above. […] Experimental compounds were prepared and added as described above. TNF-α secretion was triggered by the addition of either 1 μg/mL LPS (Sigma, #L4391) or 100 ng/mL Pam3CSK4 (Invivogen, #tlrl-pms) depending on the experiment, and cells were incubated for 3 hours. 10 μL supernatant was removed, and TNF-α levels were monitored using an HTRF assay (CisBio, #62TNFPEC) according to manufacturers' instructions. Viability was monitored as described above.
IC50 values were calculated from the plot of percentage of inhibition versus the inhibitor concentration by a logistics fit according to: y=A2+(A1−A2)/(1+(x/IC50)^p) where y is the %-inhibition at the inhibitor concentration, x. A1 is the lowest inhibition value, i.e. 0%, and A2 the maximum inhibition value, i.e. 100%. The exponent, p, is the Hill coefficient. The curve fitting was conducted with an internally developed software suite. […]

Row | SMILES | IC50 [µM]
1 | Cc1cc(C(F)(F)F)cc(O)c1-c1ccc(N[C@@H]2CCCNC2)nn1 [Ex 74, (R)-3-Methyl-2-(6-(piperidin-3-ylamino)pyridazin-3-yl)-5-(trifluoromethyl)phenol] | > 100
2 | Cc1cc(C(F)(F)F)cc(O)c1-c1ccc(NC2CCCN(C(C)C)C2)nn1 (centres unmarked) [Ex 7, 2-(6-((1-Isopropylpiperidin-3-yl)amino)pyridazin-3-yl)-3-methyl-5-(trifluoromethyl)phenol] | > 100
3 | Cc1cc(-c2ccc(C(F)(F)F)cc2O)nnc1N[C@@H]1CCCN(C)C1 [Ex 65, (R)-2-(5-Methyl-6-((1-methylpiperidin-3-yl)amino)pyridazin-3-yl)-5-(trifluoromethyl)phenol] | > 33
4 | CCN1CCC[C@@H](Nc2nnc(-c3c(C)cc(C(F)(F)F)cc3O)cc2C#N)C1 [Ex 11, (R)-3-((1-Ethylpiperidin-3-yl)amino)-6-(2-hydroxy-6-methyl-4-(trifluoromethyl)phenyl)pyridazine-4-carbonitrile] | > 100
5 | CN1CCC[C@@H](Nc2ccc(-c3c(O)cc(Cl)cc3Cl)nn2)C1 [Ex 45, (R)-3,5-Dichloro-2-(6-((1-methylpiperidin-3-yl)amino)pyridazin-3-yl)phenol TFA-salt] | > 100
6 | Oc1cc(Cl)cc(Cl)c1-c1ccc(NCC(F)(F)F)nn1 [Ex 27, 3,5-Dichloro-2-(6-((2,2,2-trifluoroethyl)amino)pyridazin-3-yl)phenol] | > 100
7 | Cc1cc(C)c(-c2ccc(N[C@@H]3CCCN(C)C3)nn2)c(O)c1 [Ex 47, (R)-3,5-Dimethyl-2-(6-((1-methylpiperidin-3-yl)amino)pyridazin-3-yl)phenol] | > 100
8 | Cc1cc(C(F)(F)F)cc(O)c1-c1cc(C(F)(F)F)c(N[C@@H]2CCCN(C)C2)nn1 [Ex 64, (R)-3-Methyl-2-(6-((1-methylpiperidin-3-yl)amino)-5-(trifluoromethyl)pyridazin-3-yl)-5-(trifluoromethyl)phenol] | > 100
9 | Cc1cc(-c2c(C)cc(C(F)(F)F)cc2O)nnc1N[C@@H]1CCCN(CCO)C1 [Ex 13, (R)-2-(6-((1-(2-Hydroxyethyl)piperidin-3-yl)amino)-5-methylpyridazin-3-yl)-3-methyl-5-(trifluoromethyl)phenol] | > 100
10 | Cc1c(N[C@@H]2CCCN(C)C2)nnc(-c2ccc(C(F)(F)F)cc2O)c1C [Ex 48, (R)-2-(4,5-Dimethyl-6-((1-methylpiperidin-3-yl)amino)pyridazin-3-yl)-5-(trifluoromethyl)phenol] | > 100
11 | Cc1cc(C(F)(F)F)cc(O)c1-c1nnc(N[C@@H]2CCCN(C)C2)c(C)c1C [Ex 40, 2-(4,5-Dimethyl-6-(((R)-1-methylpiperidin-3-yl)amino)pyridazin-3-yl)-3-methyl-5-(trifluoromethyl)phenol TFA-salt] | > 33
12 | Cc1cc(C(F)(F)F)cc(O)c1-c1ccc(N[C@H]2CCN(C)C2)nn1 [Ex 18, (S)-3-Methyl-2-(6-((1-methylpyrrolidin-3-yl)amino)pyridazin-3-yl)-5-(trifluoromethyl)phenol] | > 100
13 | Cc1cc(C(F)(F)F)cc(O)c1-c1ccc(N[C@H]2CC[C@H]3CC[C@@H]2N3C)nn1 (single isomer, unassigned) [Ex 85a] | > 100
14 | Cc1cc(N[C@@H]2CCCN(C)C2)nnc1-c1ccc(Cl)cc1O [Ex 71, (R)-5-Chloro-2-(4-methyl-6-((1-methylpiperidin-3-yl)amino)pyridazin-3-yl)phenol] | > 100
15 | Cc1cc(C(F)(F)F)cc(O)c1-c1ccc(N[C@@H]2CCCN[C@@H]2C)nn1 [Ex 91b, 3-Methyl-2-(6-(((2R,3R)-2-methylpiperidin-3-yl)amino)pyridazin-3-yl)-5-(trifluoromethyl) phenol] | > 100
16 | Cc1cc(-c2c(C)cc(C(F)(F)F)cc2O)nnc1N[C@@H]1CCCN(C)C1 [Ex 5, (R)-3-Methyl-2-(5-methyl-6-((1-methylpiperidin-3-yl)amino)pyridazin-3-yl)-5-(trifluoromethyl)phenol] | > 33
17 | Cc1cc(N[C@@H]2CCCN(C)C2)nnc1-c1ccc(OC(F)(F)F)cc1O [Ex 82, (R)-2-(4-Methyl-6-((1-methylpiperidin-3-yl)amino)pyridazin-3-yl)-5-(trifluoromethoxy)phenol] | > 100
18 | CN1CCC[C@@H](Nc2cc(C(F)(F)F)c(-c3ccc(C(F)(F)F)cc3O)nn2)C1 [Ex 53, (R)-2-(6-((1-Methylpiperidin-3-yl)amino)-4-(trifluoromethyl)pyridazin-3-yl)-5-(trifluoromethyl)phenol] | > 33
19 | Cc1cc(C(F)(F)F)cc(O)c1-c1ccc(N[C@@H]2CCCN(C)C2)nn1 [Ex 12, (R)-3-Methyl-2-(6-((1-methylpiperidin-3-yl)amino)pyridazin-3-yl)-5-(trifluoromethyl)phenol] | > 100

Row | SMILES | IC50 [µM]
20 | Cc1ccc(-c2nnc(N[C@@H]3CCCN(C)C3)cc2C(F)(F)F)c(O)c1 [Ex 50, (R)-5-Methyl-2-(6-((1-methylpiperidin-3-yl)amino)-4-(trifluoromethyl)pyridazin-3-yl)phenol] | > 100
21 | Cc1cc(C(F)(F)F)cc(O)c1-c1ccc(N[C@@H]2CC[C@H](CO)N(C)C2)nn1 [Ex 87a, 2-(6-(((3R,6R)-6-(Hydroxymethyl)-1-methylpiperidin-3-yl)amino)pyridazin-3-yl)-3-methyl-5-(trifluoromethyl)phenol] | > 100
22 | Cc1cc(C(F)(F)F)cc(O)c1-c1ccc(N[C@H]2CCCN(C)C2)nn1 [Ex 36, (S)-3-Methyl-2-(6-((1-methylpiperidin-3-yl)amino)pyridazin-3-yl)-5-(trifluoromethyl)phenol] | > 100
23 | Cc1cc(C(F)(F)F)cc(O)c1-c1ccc(N[C@@H]2C[C@H](O)CN(C)C2)nn1 [Ex 97, (3S,5R)-5-((6-(2-Hydroxy-6-methyl-4-(trifluoromethyl)phenyl)pyridazin-3-yl)amino)-1-methylpiperidin-3-ol] | > 100
24 | CN1CCC[C@@H](Nc2ccc(-c3c(O)cc(Cl)cc3C(F)(F)F)nn2)C1 [Ex 51, (R)-5-Chloro-2-(6-((1-methylpiperidin-3-yl)amino)pyridazin-3-yl)-3-(trifluoromethyl)phenol] | > 100
25 | Cc1cc(C(F)(F)F)cc(O)c1-c1ccc(NC2CNCC(F)(F)C2)nn1 (centres unmarked) [Ex 9, 2-(6-((5,5-Difluoropiperidin-3-yl)amino)pyridazin-3-yl)-3-methyl-5-(trifluoromethyl)phenol] | > 100
26 | CCN1CCC[C@@H](Nc2nnc(-c3c(C)cc(C(F)(F)F)cc3O)cc2C)C1 [Ex 101, (R)-2-(6-((1-Ethylpiperidin-3-yl)amino)-5-methylpyridazin-3-yl)-3-methyl-5-(trifluoromethyl)-phenol] | > 100
27 | Cc1cc(C(F)(F)F)cc(O)c1-c1ccc(N[C@H]2CC[C@H]3CC[C@@H]2N3CCO)nn1 (single isomer, unassigned) [Ex 86a] | > 100
28 | CN1CCC[C@@H](Nc2cc(C(F)(F)F)c(-c3ccc(Cl)cc3O)nn2)C1 [Ex 70, (R)-5-Chloro-2-(6-((1-methylpiperidin-3-yl)amino)-4-(trifluoromethyl)pyridazin-3-yl)phenol] | > 100
29 | Cc1cc(C(F)(F)F)cc(O)c1-c1ccc(N[C@@H]2CCCN(CC(C)(C)O)C2)nn1 [Ex 80, (R)-2-(6-((1-(2-Hydroxy-2-methylpropyl)piperidin-3-yl)amino)pyridazin-3-yl)-3-methyl-5-(trifluoromethyl)phenol] | > 33
30 | Cc1cc(C(F)(F)F)cc(O)c1-c1ccc(NC2CCC(C(F)(F)F)NC2)nn1 (centres unmarked) [Ex 62, 3-Methyl-5-(trifluoromethyl)-2-(6-((6-(trifluoromethyl)piperidin-3-yl)amino)pyridazin-3-yl)phenol] | > 100
31 | Cc1cc(-c2c(C)cc(C(F)(F)F)cc2O)nnc1N[C@@H]1CCCNC1 [Ex 100, (R)-3-Methyl-2-(5-methyl-6-(piperidin-3-ylamino)pyridazin-3-yl)-5-(trifluoromethyl)phenol] | > 100
32 | CN1CCC[C@@H](Nc2ccc(-c3c(O)cc(C(F)(F)F)cc3Cl)nn2)C1 [Ex 49, (R)-3-Chloro-2-(6-((1-methylpiperidin-3-yl)amino)pyridazin-3-yl)-5-(trifluoromethyl)phenol] | > 100
33 | Cc1cc(C(F)(F)F)cc(O)c1-c1ccc(N[C@H]2CCCN[C@H]2C)nn1 [Ex 91a, 3-Methyl-2-(6-(((2S,3S)-2-methylpiperidin-3-yl)amino)pyridazin-3-yl)-5-(trifluoromethyl)phenol] | > 100
34 | Cc1cc(C(F)(F)F)cc(O)c1-c1ccc(O[C@@H]2CCCN(C)C2)nn1 [Ex 42, (R)-3-Methyl-2-(6-((1-methylpiperidin-3-yl)oxy)pyridazin-3-yl)-5-(trifluoromethyl)phenol] | > 100
35 | Cc1cc(C(F)(F)F)cc(O)c1-c1ccc(N[C@H]2CCCNC2)nn1 [Ex 33, (S)-3-Methyl-2-(6-(piperidin-3-ylamino)pyridazin-3-yl)-5-(trifluoromethyl)phenol] | > 100
36 | Cc1cc(C(F)(F)F)cc(O)c1-c1ccc(Nc2cccnc2)nn1 [Ex 46, 3-Methyl-2-(6-(pyridin-3-ylamino)pyridazin-3-yl)-5-(trifluoromethyl)phenol] | > 100
37 | CCN1CCC[C@@H](Nc2ccc(-c3c(C)cc(C(F)(F)F)cc3O)nn2)C1 [Ex 1, (R)-2-(6-((1-Ethylpiperidin-3-yl)amino)pyridazin-3-yl)-3-methyl-5-(trifluoromethyl)phenol] | > 100
38 | Oc1cc(Cl)cc(Cl)c1-c1ccc(NC2CC2)nn1 [Ex 44, 3,5-Dichloro-2-(6-(cyclopropylamino)pyridazin-3-yl)phenol] | > 100
